Experimental data taken from article PMC12884720, “Gabpα‐Pparγ Complex Determines Glycolytic Capacity and Lactic Acid Homeostasis in Brown Fat” (Advanced Science, 2025).
No end group written: not given here. *: point of attachment. FITC = O=C1OC2(c3ccc(O)cc3Oc3cc(O)ccc32)c2ccc(NC(=S)*)cc21

B1: Gabpα protein (SPR analyte) (natural protein, UniProt Q00422 1-454, looked up)
chain: MTKREAEELIEIEIDGTEKAECTEESIVEQTYTPAECVSQAIDINEPIGNLKKLLEPRLQCSLDAHEICLQDIQLDPDRSLFDQGVKTDGTVQLSVQVISYQGMEPKLNILEIVKTAETVEVVIDPDAHHAEAEAHLVEEAQVITLDGTKHITTISDETSEQVTRWAAALEGYRKEQERLGIPYDPIHWSTDQVLHWVVWVMKEFSMTDIDLTTLNISGRELCSLNQEDFFQRVPRGEILWSHLELLRKYVLASQEQQMNEIVTIDQPVQIIPASVPPATPTTIKVINSSAKAAKVQRSPRISGEDRSSPGNRTGNNGQIQLWQFLLELLTDKDARDCISWVGDEGEFKLNQPELVAQKWGQRKNKPTMNYEKLSRALRYYYDGDMICKVQGKRFVYKFVCDLKTLIGYSAAELNRLVIECEQKKLARMQLHGIAQPVTAVALAATSLQADKEI
notes: May be the Cusabio GST-Gabpα of the pull-down

Columns and labels:
[1] = tested on: Eno1 promoter; assay: Luciferase reporter assay, Eno1-Luc activated by Gabpα and Pparγ/Rxrα; format: cell-based, human; conditions: HEK293T cells, T0070907 10 µM, n = 3 (Figure 3o)
Protocol: HEK293T cells were transfected with 100 ng of Pparγ and 100 ng of Rxrα or empty vector together with 100 ng of Gabpα plasmid or the C‐terminal truncation mutants and 200 ng of Eno1 luciferase reporter plasmid in 24‐well plates via Lipofectamine reagent (Yeasen, Shanghai, China, Cat# 40802ES03). For the experiments with the peptides GPCBi or T0070907, the additional peptides GPCBi (3 µM) or T0070907 (10 µM) were added to the HEK293T cells one day after the plasmid complex was transfected. After 48 h of transfection, luciferase activity was measured via the Dual‐Luciferase Reporter Assay System (Vazyme Biotech., Nanjing, China; Cat# DL101‐01). Firefly luciferase reporter gene measurements were normalized to Renilla luciferase activity.

[2] = tested on: iBAT‐SVF cells; assay: Immunofluorescence, nuclear localization of FITC-GPCBi in iBAT-SVF cells; format: cell-based, C57BL/6 mice; conditions: FITC‐GPCBi 5 µM, first 2 days of adipogenic differentiation; DAPI (Figure 4d)
Protocol: Interscapular BAT‐SVF cells were obtained from eight‐week‐old male C57BL/6 mice. Briefly, BAT was excised, washed in PBS, minced, and digested at 37 °C for 40 min in Hanks solution containing type II collagenase (Sigma, Cat# C‐6885) and 4% bovine serum albumin (BSA). The tissue homogenates were filtered through a 70 µm cell strainer and centrifuged at 1000 rpm for 5 min. The cell pellet was resuspended in DMEM supplemented with 10% FBS (Sigma–Aldrich) and 1% penicillin/streptomycin (P/S) at 37 °C with 5% CO2. The next day, BAT‐SVF cells were immortalized with the SV40 large T antigen according to a published protocol.^[ [32] ^] For iBAT‐SVF cell differentiation, confluent SVF cells were induced to differentiate with medium containing 0.5 mM isobutylmethylxanthine (Sigma, Cat# I‐5879), 125 µM indomethacin (Sigma, Cat# I‐7378), 2 µg mL^−1 dexamethasone (Sigma, Cat# D‐1756), 5 µg mL^−1 insulin (Solarbio, Cat# I‐8040), 1 nM triiodo‐L‐thyronine (Sigma, Cat# T‐2877), and 1 µM rosiglitazone (Cayman, Cat# 71740‐100). […]
Differentiated iBAT‐SVF cells were fixed with 4% paraformaldehyde for 20 min at room temperature and then rinsed three times with PBS. […] The cells were subsequently washed three times with PBS and incubated with a fluorescence‐conjugated secondary antibody (ABclonal, Wuhan, China, Cat# AS053; AS008, 1:200 dilution) for 1 h at room temperature. […]

[3] = tested on: differentiated iBAT‐SVF cells; assay: Relative mRNA and protein levels in differentiated iBAT-SVF cells; format: cell-based, C57BL/6 mice; conditions: GPCBi 5 µM, first 2 days of differentiation, and Enoblock 10 µM for 24 h (Figure 5p)
Protocol: Interscapular BAT‐SVF cells were obtained from eight‐week‐old male C57BL/6 mice. […] The tissue homogenates were filtered through a 70 µm cell strainer and centrifuged at 1000 rpm for 5 min. The cell pellet was resuspended in DMEM supplemented with 10% FBS (Sigma–Aldrich) and 1% penicillin/streptomycin (P/S) at 37 °C with 5% CO2. The next day, BAT‐SVF cells were immortalized with the SV40 large T antigen according to a published protocol.^[ [32] ^] […] After 48 h, the induction medium was replaced with a maintenance cocktail (5 µg mL^−1 insulin, 1 nM triiodo‐L‐thyronine, and 1 µM rosiglitazone) until 6 to 8 days after the induction of differentiation.
Reverse transcription of cDNA was completed via the use of 1 µg of RNA with HiScript II Q RT SuperMix for real‐time quantitative PCR (qPCR) (Vazyme Biotech, Nanjing, China, Cat# R222) according to the provided protocols. qPCR was performed with a real‐time PCR system on a QuantStudio1 (Applied Biosystems) using Taq Pro Universal SYBR qPCR Master Mix (Vazyme Biotech., Nanjing, China, Cat# Q712‐02). Relative transcript levels were calculated via the comparative C T method; 36b4 was used as the internal control for cells, whereas Hprt was used as the internal control for tissues. The primer sequences are listed in Table S1 (Supporting Information). The mRNAs from the BAT of control and Gabpα ^Ucp1 KO mice were extracted and subjected to commercial RNA‐seq (BGI Genomics Co., Ltd.) for further DEG and KEGG pathway enrichment analysis. In detail, RNA quality was examined with Fragment (Agilent). High‐quality RNA (RIN > 8.0) was used to library construction. RNA‐seq was performed at BGI Genomics (China) using the Illumina NovaSeq 6000 platform. Clean reads were aligned to the mouse reference genome (GRCm39) using Bowtie2, and transcript quantification was performed with RSEM. […] The RNA‐seq data generated in this study have been deposited in the National Center for Biotechnology Information Sequence Read Archive database under accession code PRJNA1358056.
Cells and tissues were lysed in RIPA lysis buffer (Beyotime, Shanghai, China, Cat# P0013B) containing a protease inhibitor cocktail (MedChem Express, NJ, USA, Cat# HY‐K0010) according to the manufacturer's protocol. Equal amounts of protein were separated on SDS‒PAGE gels and transferred to PVDF membranes (Millipore). The PVDF membranes were blocked in 5% skim milk for 1 h at room temperature and then incubated with primary antibody overnight at 4 °C. The membranes were washed three times with TBST and then incubated with HRP‐conjugated secondary antibodies for 1 h at room temperature. After washing three times, the Western blots were imaged via an enhanced chemiluminescence system.

[4] = tested on: differentiated iBAT‐SVF cells; assay: Lactate levels in differentiated iBAT-SVF cells; format: cell-based, C57BL/6 mice; conditions: GPCBi 5 µM, first 2 days of differentiation, and Enoblock 10 µM for 24 h (Figure 5o)
Protocol: Interscapular BAT‐SVF cells were obtained from eight‐week‐old male C57BL/6 mice. Briefly, BAT was excised, washed in PBS, minced, and digested at 37 °C for 40 min in Hanks solution containing type II collagenase (Sigma, Cat# C‐6885) and 4% bovine serum albumin (BSA). The tissue homogenates were filtered through a 70 µm cell strainer and centrifuged at 1000 rpm for 5 min. The cell pellet was resuspended in DMEM supplemented with 10% FBS (Sigma–Aldrich) and 1% penicillin/streptomycin (P/S) at 37 °C with 5% CO2. The next day, BAT‐SVF cells were immortalized with the SV40 large T antigen according to a published protocol.^[ [32] ^] For iBAT‐SVF cell differentiation, confluent SVF cells were induced to differentiate with medium containing 0.5 mM isobutylmethylxanthine (Sigma, Cat# I‐5879), 125 µM indomethacin (Sigma, Cat# I‐7378), 2 µg mL^−1 dexamethasone (Sigma, Cat# D‐1756), 5 µg mL^−1 insulin (Solarbio, Cat# I‐8040), 1 nM triiodo‐L‐thyronine (Sigma, Cat# T‐2877), and 1 µM rosiglitazone (Cayman, Cat# 71740‐100). After 48 h, the induction medium was replaced with a maintenance cocktail (5 µg mL^−1 insulin, 1 nM triiodo‐L‐thyronine, and 1 µM rosiglitazone) until 6 to 8 days after the induction of differentiation.
Brown fat was homogenized with lysis buffer, ultrasonographically treated on ice at 300 W (on for 3 s, off for 7 s) for 2 min, and then centrifuged at 4 °C at 12 000 × g for 10 min. […] All protocols were followed in accordance with the manufacturer's guidelines.

[5] = tested on: BAT from wild‐type mice; assay: H&E staining and Ucp1 immunostaining of BAT; format: in vivo, wild‐type C57BL/6J mice; conditions: GPCBi 5.5 mg kg^−1 in BAT for 7 days, then sodium lactate 2 g kg^−1 d^−1 i.p. daily for 3 days following 10 °C for 2 days; Ucp1 immunostaining (Figure 5g-i)
Protocol: The mouse experiments were approved by the Institutional Animal Care and Use Committee of the Institute of Model Animals of Tongji Hospital, Huazhong University of Science and Technology, and were performed in compliance with all relevant ethical regulations (approval number: TJH‐202110044). Unless otherwise noted, the mice were housed in a pathogen‐free and climate‐controlled environment (22–25 °C, 40‐60% humidity) and were given free access to food and water on a 12 h light/dark cycle. Wild‐type C57BL/6J mice were obtained from Beijing Huafukang Bioscience Co., Ltd. (Beijing, China). Gabpa ^flox/flox , Adipoq^Cre , and Ucp1^Cre mice were purchased from Cyagen Biosciences, Inc. (Guangzhou, China). For GPCBi treatment, wild‐type mice were orthotopically injected GPCBi (FITC‐[…]; 5.5 mg kg^−1) or scramble peptide (FITC‐[…]; 5.5 mg kg^−1) into the BAT at room temperature for one week. […] For cold exposure, the mice were caged individually and exposed to a temperature of 10 or 4 °C. The mice were euthanized by CO2 inhalation. For studies with specific diets, five‐week‐old male Gabpα ^Adipo KI mice and their respective littermate control mice were fed a HFD (D12492, Research Diets; 60 kcal% fat, 20 kcal% carbohydrates, and 20 kcal% protein; Medicience Ltd., Jiangsu, China) at ambient temperature. The food was changed every week. Body weight was measured every week, and tissue weights were measured at the time of euthanasia.
For haematoxylin and eosin (H&E) staining, adipose tissues and the liver were fixed in 4% paraformaldehyde overnight at 4 °C and then dehydrated in 70% ethanol. The tissues were subsequently embedded in paraffin, sectioned at a thickness of 5 µm, and stained with H&E or immunostained with a Ucp1 antibody (Abcam, UK, Cat# ab234430, 1:500 dilution) following the standard protocol. For Oil Red O staining, frozen liver sections were stained with Oil Red O solution for 10 min and then counterstained with haematoxylin for 20 s. Images of the tissue samples were captured via an Olympus BX53 Orthomicroscope. […]

[6] = target: T1, Pparγ protein (SPR ligand) (UniProt P37238 1-505); assay: SPR; Biacore T200, CM5 chip; Pparγ immobilised covalently; different concentrations of Gabpα injected; 120 s association, 200 s dissociation; conditions: both partners purified
T1 construct: May be the Cusabio His-Pparγ of the pull-down
T1 sequence (looked up): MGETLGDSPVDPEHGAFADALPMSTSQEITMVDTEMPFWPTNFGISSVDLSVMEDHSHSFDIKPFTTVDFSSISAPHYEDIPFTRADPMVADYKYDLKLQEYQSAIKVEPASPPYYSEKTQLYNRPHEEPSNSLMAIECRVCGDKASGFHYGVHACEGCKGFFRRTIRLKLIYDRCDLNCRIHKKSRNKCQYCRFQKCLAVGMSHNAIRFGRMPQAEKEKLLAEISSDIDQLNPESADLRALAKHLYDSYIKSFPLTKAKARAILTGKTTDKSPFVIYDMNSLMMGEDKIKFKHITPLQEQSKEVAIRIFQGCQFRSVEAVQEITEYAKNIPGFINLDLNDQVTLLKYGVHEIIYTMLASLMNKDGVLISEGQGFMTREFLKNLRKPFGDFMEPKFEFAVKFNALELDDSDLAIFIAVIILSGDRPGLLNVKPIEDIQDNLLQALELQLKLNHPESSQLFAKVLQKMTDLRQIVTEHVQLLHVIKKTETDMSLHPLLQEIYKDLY

[7] = target: B1; assay: not stated; direct binding of GPCBi to Gabpα, dose-dependent (Figure S4d); method and who was immobilised not told; conditions: both partners purified

Molecule: O=C(Nc1ccncc1)c1cc([N+](=O)[O-])ccc1Cl [T0070907, reference compound]
- Eno1 promoter activity induced by Gabpα [1]: inhibited

Molecule: FITC‐tagged GPCBi: FITC‐tagged GPCBi ({FITC}-YGRKKRRQRRRRRTIRLKLIYDRCDLNCRIHKKSRNK; cysteine pairing not given here)
- cellular localization [2]: nuclear localization

Molecule: NCCOCCOCCNC(=O)Cc1ccc(Nc2nc(NCc3ccc(F)cc3)nc(NCC3CCCCC3)n2)cc1 [Enoblock, reference compound]
- ucp1 expression when Enoblock further added to GPCBi-treated brown adipocytes [3]: no change
- GPCBi-induced reduction of lactate level in presence of Enoblock [4]: not observed

Molecule: CC(O)C(=O)[O-].[Na+] (stereo not shown) [lactate, sodium lactate, reference compound]
- Ucp1 expression suppressed by GPCBi (rescue) [5]: rescued

Molecule: B1
- Kd [6]: 5.34 nM

B2: Gabpα-Pparγ complex binding inhibitor (GPCBi) (peptide)
peptide: {FITC}-YGRKKRRQRRRRRTIRLKLIYDRCDLNCRIHKKSRNK
modifications: cysteine pairing not given here
notes: the numbers fit the 505-residue Pparγ2; also called FITC-GPCBi; peptide GPCBi; source: synthetic peptide
- Kd [7]: 7.03 nM
